The data set in a line: Dissolution comparison of Nα-Nsc-amino acids and Nα-Fmoc-amino acids. Type of data set: physicochemical. The arrangement: key: ◯: dissolution; Δ: partial dissolution; X: no dissolution. To be noted: for Dissolved state, Nsc, column B / Dissolved state, Nsc, column A / Dissolved state, Nsc, column D / Dissolved state, Nsc, column C: Nsc-amino acid. Here is the method:
Since only amino acids fully dissolved in a solvent can be used in acylation reactions, the following tests were performed to find solvent conditions in which amino acids can be completely dissolved.
100 mg of each of Nα-Nsc-amino acids and Nα-Fmoc-amino acids shown in Table 1, below, were precisely weighed and added to two containers added with 1 ml of dichloromethane (hereinafter, referred to as “DCM”), followed by stirring for 5 minutes. The dissolved states of amino acids were observed and are expressed in column A of the following Table 1.
Other amino acids, exclusive of totally dissolved amino acids, were heated in an oven at 40° C. for 5 minutes, and allowed to stand at room temperature for 5 minutes. Their dissolved states are shown in column B.
As such, the undissolved amino acids were dissolved in 15% dimethylformamide (hereinafter, referred to as “DMF”)/DCM in the same manner as in the case of the above column A, and their dissolved states are presented in column C.
Still undissolved amino acids were heated in an oven at 40° C. for 5 minutes, and allowed to stand at room temperature for 5 minutes. Their dissolved states were observed and are shown in column D.

Setting [1] is: 100 mg in 1 ml dichloromethane, heated at 40° C. for 5 minutes, then room temperature 5 minutes.
The mark [2] stands for this setting: 100 mg in 1 ml dichloromethane, stirring 5 minutes.
Where [3] appears, read: 15% DMF/DCM, heated at 40° C. for 5 minutes, then room temperature 5 minutes.
The mark [4] stands for this setting: 15% DMF/DCM, stirring 5 minutes.

Results on five molecules are retold here after patent US20040192888A1, “Method of preparing peptide with high yield and high purity using2-(4-nitrophenylsulfonyl) ethoxycarbonyl-amino acids” (priority 2001, published 2004).

Molecules are shown by their SMILES.

For `Cc1c(C)c(S(=O)(=O)N=C(N)NCCCC(NC(=O)OCCS(=O)(=O)c2ccc([N+](=O)[O-])cc2)C(=O)O)c(C)c2c1OC(C)(C)C2` (centres unmarked) [Nsc-Arg], under setting [1], the “Dissolved state, Nsc, column B” value is on record as “◯”. The “Dissolved state, Nsc, column A” value under setting [2] is “◯”. Further, under setting [3], the “Dissolved state, Nsc, column D” value is listed as “◯”. The “Dissolved state, Nsc, column C” value under setting [4] is “◯”.
In the case of `CSCC[C@H](NC(=O)OCCS(=O)(=O)c1ccc([N+](=O)[O-])cc1)C(=O)O` [Nsc-Met], under setting [1], the “Dissolved state, Nsc, column B” value is given as “◯”. Besides, the “Dissolved state, Nsc, column A” value under setting [2] is given as “Δ”. For the same molecule, the “Dissolved state, Nsc, column D” value under setting [3] is “◯”. Besides, the “Dissolved state, Nsc, column C” value under setting [4] is “◯”.
Consider `O=C(CC(NC(=O)OCCS(=O)(=O)c1ccc([N+](=O)[O-])cc1)C(=O)O)NC(c1ccccc1)(c1ccccc1)c1ccccc1` (centres unmarked) [Nsc-Asn], for which the “Dissolved state, Nsc, column B” value under setting [1] is “X”. Under setting [2], the “Dissolved state, Nsc, column A” value is “X”. The “Dissolved state, Nsc, column D” value under setting [3] was “◯”. For the same molecule, under setting [4], the “Dissolved state, Nsc, column C” value was “◯”.
For the molecule `CC[C@H](C)[C@H](NC(=O)OCCS(=O)(=O)c1ccc([N+](=O)[O-])cc1)C(=O)O` [Nsc-Iie], the “Dissolved state, Nsc, column B” value under setting [1] is on record as “◯”. Further, the “Dissolved state, Nsc, column A” value under setting [2] was “Δ”. In addition, the “Dissolved state, Nsc, column D” value under setting [3] is “◯”. Besides, the “Dissolved state, Nsc, column C” value under setting [4] is “◯”.
`CC(C)(C)OC(=O)NCCCCC(NC(=O)OCC1c2ccccc2-c2ccccc21)C(=O)O` (centres unmarked) [Fmoc-Lys, reference compound]: the “Dissolved state, Fmoc, column B” value (Fmoc-amino acid, 100 mg in 1 ml dichloromethane, heated at 40° C. for 5 minutes, then room temperature 5 minutes) is reported as “◯”. In addition, the “Dissolved state, Fmoc, column A” value (Fmoc-amino acid, 100 mg in 1 ml dichloromethane, stirring 5 minutes) is “◯”. The “Dissolved state, Fmoc, column D” value (Fmoc-amino acid, 15% DMF/DCM, heated at 40° C. for 5 minutes, then room temperature 5 minutes) is given as “◯”. The “Dissolved state, Fmoc, column C” value (Fmoc-amino acid, 15% DMF/DCM, stirring 5 minutes) is recorded as “◯”.
